Patent US20080171072A1, “OCULAR INSERTS CONTAINING APOMORPHINE” (priority 2006, published 2008)

Key:
canine patients [1] = conditions: intravenous route
Source text: On the report forms supplied with the product, if any of these occurred the clinicians were asked to grade them on a subjective scale of 1 to 5 with a score of 1 being mild and 5 being severe. The clinicians were also asked to rate the ease of use of the inserts for each case with a score of 5 being very easy to use and 1 being very difficult.

canine patients [2] = system: canine patients
[3] = Autoclaving of the casting solution; format: physicochemical; conditions: preliminary trial
[4] = subjective scale, 5 severe, Median (25%-75%)

CN1CCc2cccc3c2[C@H]1Cc1ccc(O)c(O)c1-3.Cl [intravenous apomorphine, apomorphine HCI]
Prolonged vomiting, Frequency (%) (canine patients [1]; n = 32): 3.1% | Sedation, Frequency (%) (canine patients [1]; n = 32): 43.8% | Tachycardia, Frequency (%) (canine patients [1]; n = 32): 15.6% | Prolonged vomiting, Score (canine patients [1]; [4]): 3 (3-3) | Sedation, Score (canine patients [1]; [4]): 2 (1-2) | Tachycardia, Score (canine patients [1]; [4]): 2 (2-3) | % of Patients, Success (canine patients [2]; intravenous 0.03-0.04 mg kg-1, emesis within 15 minutes, n 32): 90.6% | Time to emesis (canine patients [2]; intravenous 0.03-0.04 mg kg-1, median, n 32 (Success 29)): 1.0 min | % of Patients, Failure (canine patients [2]; intravenous 0.03-0.04 mg kg-1, n 32): 9.4% | % of patients showing no emesis at all (canine patients [2]; intravenous route, n 32): 9.4%

CN1CCc2cccc3c2[C@H]1Cc1ccc(O)c(O)c1-3 [apomorphine]
stability under conditions required for autoclaving [3]: unstable
